Experimental data taken from ChEMBL document CHEMBL4316596, “Antimicrobial Peptides with High Proteolytic Resistance for Combating Gram-Negative Bacteria” (J Med Chem, 2019).
Values after ≈ are worked out from the molar mass of the structure shown. Active and inactive are the calls of the source. The calls are words filed in the database; no cut-off is given here.

Legend:
Escherichia coli [1] = assay: Antimicrobial activity against Escherichia coli ATCC 25922 after 24 hrs by NCCLS-protocol based assay; format: functional; conditions: ATCC 25922, 24 h
Escherichia coli [2] = assay: Antimicrobial activity against Escherichia coli K88 after 24 hrs by NCCLS-protocol based assay; format: functional; conditions: K88, 24 h
Pseudomonas aeruginosa [3] = assay: Antimicrobial activity against Pseudomonas aeruginosa CICC 21630 clinical isolates after 24 hrs by NCCLS-protocol based assay; format: functional; conditions: CICC 21630, 24 h
Pseudomonas aeruginosa [4] = assay: Antimicrobial activity against Pseudomonas aeruginosa 26305 clinical isolates after 24 hrs by NCCLS-protocol based assay; format: functional; conditions: Pseudomonas aeruginosa, 26305, 24 h
Pseudomonas aeruginosa [5] = assay: Antimicrobial activity against Pseudomonas aeruginosa 25349 clinical isolates after 24 hrs by NCCLS-protocol based assay; format: functional; conditions: Pseudomonas aeruginosa, 25349, 24 h
Salmonella typhimurium [6] = assay: Antimicrobial activity against Salmonella typhimurium ATCC 14028 after 24 hrs by NCCLS-protocol based assay; format: functional, Salmonella enterica subsp. enterica serovar Typhimurium; conditions: Salmonella enterica, ATCC 14028, 24 h
[7] = Antimicrobial activity against Salmonella pullorum C7913 after 24 hrs by NCCLS-protocol based assay; format: functional, Salmonella enterica subsp. enterica serovar Pullorum; conditions: Salmonella enterica, C7913, 24 h
Acinetobacter baumannii = assay: Antimicrobial activity against Acinetobacter baumannii after 24 hrs by NCCLS-protocol based assay; format: functional
Klebsiella pneumoniae [8] = assay: Antimicrobial activity against Klebsiella pneumoniae after 24 hrs by NCCLS-protocol based assay; format: functional
Erythrocyte = assay: Hemolytic activity against human RBC after 1 hr; format: ADME, cell-based
RAW264.7 = assay: Cytotoxicity against mouse RAW264.7 cells assessed as cell death after 18 to 24 hrs by MTT assay; format: cell-based
[9] = Cytotoxicity against IPECJ2 cells assessed as cell death after 18 to 24 hrs by MTT assay; format: cell-based; conditions: Sus scrofa, IPEC-J2
Escherichia coli [10] = assay: Bactericidal activity against Escherichia coli ATCC 25922 incubated for 4 hrs followed by culture spread on agar plates and cultured overnight; format: functional; conditions: ATCC 25922, 4 h, read-out: MBC>99.9
[11] = Selectivity ratio of IC50 for mouse RAW264.7 cells to geometric mean of the peptide MBC for bacteria
Escherichia coli [12] = assay: Bactericidal activity against Escherichia coli ATCC 25922 incubated for 4 hrs followed by culture spread on agar plates and cultured overnight in presence of NaCl; format: functional; conditions: ATCC 25922, 4 h, read-out: MBC>99.9
Escherichia coli [13] = assay: Bactericidal activity against Escherichia coli ATCC 25922 incubated for 4 hrs followed by culture spread on agar plates and cultured overnight in presence of CaCl2; format: functional; conditions: ATCC 25922, 4 h, read-out: MBC>99.9
Escherichia coli [14] = assay: Bactericidal activity against Escherichia coli ATCC 25922 incubated for 4 hrs followed by culture spread on agar plates and cultured overnight in presence of FeCl3; format: functional; conditions: ATCC 25922, 4 h, read-out: MBC>99.9
Escherichia coli [15] = assay: Bactericidal activity against Escherichia coli ATCC 25922 incubated for 4 hrs followed by culture spread on agar plates and cultured overnight in presence of NH4Cl; format: functional; conditions: ATCC 25922, 4 h, read-out: MBC>99.9
Escherichia coli [16] = assay: Bactericidal activity against Escherichia coli ATCC 25922 incubated for 4 hrs followed by culture spread on agar plates and cultured overnight in presence of 50% serum albumin; format: functional; conditions: ATCC 25922, 4 h, read-out: MBC>99.9
Escherichia coli [17] = assay: Bactericidal activity against Escherichia coli ATCC 25922 incubated for 4 hrs followed by culture spread on agar plates and cultured overnight in presence of 4 mg/ml trypsin; format: functional; conditions: ATCC 25922, 4 h, read-out: MBC>99.9
Escherichia coli [18] = assay: Bactericidal activity against Escherichia coli ATCC 25922 incubated for 4 hrs followed by culture spread on agar plates and cultured overnight in presence of 2 mg/ml trypsin; format: functional; conditions: ATCC 25922, 4 h, read-out: MBC>99.9
Escherichia coli [19] = assay: Bactericidal activity against Escherichia coli ATCC 25922 incubated for 4 hrs followed by culture spread on agar plates and cultured overnight in presence of 0.25 mg/ml trypsin; format: functional; conditions: ATCC 25922, 4 h, read-out: MBC>99.9
Escherichia coli [20] = assay: Bactericidal activity against Escherichia coli ATCC 25922 incubated for 4 hrs followed by culture spread on agar plates and cultured overnight in presence of 0.125 mg/ml trypsin; format: functional; conditions: ATCC 25922, 4 h, read-out: MBC>99.9
Escherichia coli [21] = assay: Bactericidal activity against Escherichia coli ATCC 25922 incubated for 4 hrs followed by culture spread on agar plates and cultured overnight in presence of 0.25 mg/ml chymotrypsin; format: functional; conditions: ATCC 25922, 4 h, read-out: MBC>99.9
Escherichia coli [22] = assay: Bactericidal activity against Escherichia coli ATCC 25922 incubated for 4 hrs followed by culture spread on agar plates and cultured overnight in presence of 0.125 mg/ml chymotrypsin; format: functional; conditions: ATCC 25922, 4 h, read-out: MBC>99.9
Escherichia coli [23] = assay: Bactericidal activity against Escherichia coli ATCC 25922 incubated for 4 hrs followed by culture spread on agar plates and cultured overnight in presence of 4 mg/ml pepsin; format: functional, organism-based
Escherichia coli [24] = assay: Bactericidal activity against Escherichia coli UB1005 incubated for 4 hrs followed by culture spread on agar plates and cultured overnight; format: functional; conditions: UB1005, 4 h, read-out: MBC>99.9
Escherichia coli [25] = assay: Bactericidal activity against Escherichia coli 078 incubated for 4 hrs followed by culture spread on agar plates and cultured overnight; format: functional; conditions: Escherichia coli, 078, 4 h; read-out: MBC>99.9
Escherichia coli [26] = assay: Bactericidal activity against Escherichia coli K88 incubated for 4 hrs followed by culture spread on agar plates and cultured overnight; format: functional; conditions: K88, 4 h, read-out: MBC>99.9
Pseudomonas aeruginosa [27] = assay: Bactericidal activity against Pseudomonas aeruginosa ATCC 27853 incubated for 4 hrs followed by culture spread on agar plates and cultured overnight; format: functional; conditions: ATCC 27853, 4 h, read-out: MBC>99.9
Pseudomonas aeruginosa [28] = assay: Bactericidal activity against Pseudomonas aeruginosa PAO1 incubated for 4 hrs followed by culture spread on agar plates and cultured overnight; format: functional; conditions: PAO1, 4 h, read-out: MBC>99.9
Pseudomonas aeruginosa [29] = assay: Bactericidal activity against Pseudomonas aeruginosa CICC 21630 clinical isolates incubated for 4 hrs followed by culture spread on agar plates and cultured overnight; format: functional; conditions: CICC 21630, 4 h, read-out: MBC>99.9
Pseudomonas aeruginosa [30] = assay: Bactericidal activity against Pseudomonas aeruginosa 26305 clinical isolates incubated for 4 hrs followed by culture spread on agar plates and cultured overnight; format: functional; conditions: Pseudomonas aeruginosa, 26305, 4 h; read-out: MBC>99.9
Salmonella typhimurium [31] = assay: Bactericidal activity against Salmonella typhimurium C7731 incubated for 4 hrs followed by culture spread on agar plates and cultured overnight; format: functional, Salmonella enterica subsp. enterica serovar Typhimurium; conditions: Salmonella enterica, C7731, 4 h; read-out: MBC>99.9
Klebsiella pneumoniae [32] = assay: Bactericidal activity against Klebsiella pneumoniae incubated for 4 hrs followed by culture spread on agar plates and cultured overnight; format: functional; conditions: read-out: MBC>99.9
Pseudomonas aeruginosa [33] = assay: Antimicrobial activity against Pseudomonas aeruginosa ATCC 27853 at sub-MBC after 60 passages; format: functional, organism-based
Escherichia coli [34] = assay: Antibacterial activity against Escherichia coli ATCC 25922 infected in ICR mouse assessed as log reduction in bacterial cells in spleen at 5 mg/kg, ip administered at 5 mg/kg, ip dosed at 0.5, 2, 4 and 8 hrs post-infection; format: functional
Escherichia coli [35] = assay: Antibacterial activity against Escherichia coli ATCC 25922 infected in ICR mouse assessed as log reduction in bacterial cells in liver at 5 mg/kg, ip administered at 5 mg/kg, ip dosed at 0.5, 2, 4 and 8 hrs post-infection; format: functional
Escherichia coli [36] = assay: Antibacterial activity against Escherichia coli ATCC 25922 infected in ICR mouse assessed as log reduction in bacterial cells in peritoneal cavity at 5 mg/kg, ip administered at 5 mg/kg, ip dosed at 0.5, 2, 4 and 8 hrs post-infection; format: functional

Molecule	MIC95 (Escherichia coli [1])	MIC95 (Escherichia coli [2])	MIC95 (Pseudomonas aeruginosa [3])	MIC95 (Pseudomonas aeruginosa [4])	MIC95 (Pseudomonas aeruginosa [5])	MIC95 (Salmonella typhimurium [6])	MIC95 [7]	MIC95 (Acinetobacter baumannii)	MIC95 (Klebsiella pneumoniae [8])	HC10 (Erythrocyte)	IC50 (RAW264.7)	MBC (Escherichia coli [10])	Ratio [11]	MBC (Escherichia coli [12])	MBC (Escherichia coli [13])	MBC (Escherichia coli [14])	MBC (Escherichia coli [15])	MBC (Escherichia coli [16])	MBC (Escherichia coli [17])	MBC (Escherichia coli [18])	also measured
H-IKPIIKPIIKPIIKPIIKPIIKPIIKPI-NH2	8 µM	2 µM	> 64 µM	> 64 µM	> 64 µM	64 µM	64 µM	2 µM	16 µM	> 128 µM	2750 µM	16 µM	75.44	> 128 µM	> 128 µM	64 µM	16 µM	> 128 µM	16 µM	16 µM	IC50 [9]: 345 µM; MBC (Escherichia coli [19]): 16 µM; MBC (Escherichia coli [20]): 16 µM; MBC (Escherichia coli [21]): 16 µM; MBC (Escherichia coli [22]): 16 µM; Activity (Escherichia coli [23]): inactive; MBC (Escherichia coli [24]): 4 µM; MBC (Escherichia coli [25]): 16 µM; MBC (Escherichia coli [26]): 2 µM; MBC (Pseudomonas aeruginosa [27]): > 64 µM; MBC (Pseudomonas aeruginosa [28]): > 64 µM; MBC (Pseudomonas aeruginosa [29]): > 64 µM; MBC (Pseudomonas aeruginosa [30]): > 64 µM; MBC (Salmonella typhimurium [31]): > 64 µM; MBC (Klebsiella pneumoniae [32]): 64 µM
H-IRPIIRPIIRPIIRPIIRPIIRPIIRPI-NH2	1 µM	1 µM	32 µM	32 µM	32 µM	2 µM	2 µM	1 µM	2 µM	> 128 µM	5650 µM	2 µM	1136.22	8 µM	> 128 µM	2 µM	2 µM	16 µM	2 µM	2 µM	Activity (Pseudomonas aeruginosa [33]): Active; IC50 [9]: 126 µM; MBC (Escherichia coli [19]): 2 µM; MBC (Escherichia coli [20]): 2 µM; MBC (Escherichia coli [21]): 2 µM; MBC (Escherichia coli [22]): 2 µM; log(activity) (Escherichia coli [34]): 1.6; log(activity) (Escherichia coli [35]): 2; log(activity) (Escherichia coli [36]): 5; Activity (Escherichia coli [23]): Active; MBC (Escherichia coli [24]): 2 µM; MBC (Escherichia coli [25]): 1 µM; MBC (Escherichia coli [26]): 1 µM; MBC (Pseudomonas aeruginosa [27]): 8 µM; MBC (Pseudomonas aeruginosa [28]): 8 µM; MBC (Pseudomonas aeruginosa [29]): 32 µM; MBC (Pseudomonas aeruginosa [30]): 64 µM; MBC (Salmonella typhimurium [31]): 2 µM; MBC (Klebsiella pneumoniae [32]): 4 µM
CC[C@H](C)[C@H](NC(=O)CN)C(=O)NCC(=O)N[C@@H](C)C(=O)N[C@H](C(=O)N[C@@H](CC(C)C)C(=O)N[C@@H](CCCCN)C(=O)N[C@H](C(=O)N[C@@H](CC(C)C)C(=O)N[C@H](C(=O)N[C@H](C(=O)NCC(=O)N[C@@H](CC(C)C)C(=O)N1CCC[C@H]1C(=O)N[C@@H](C)C(=O)N[C@@H](CC(C)C)C(=O)N[C@H](C(=O)N[C@@H](CO)C(=O)N[C@@H](Cc1c[nH]c2ccccc12)C(=O)N[C@H](C(=O)N[C@@H](CCCCN)C(=O)N[C@@H](CCCNC(=N)N)C(=O)N[C@@H](CCCCN)C(=O)N[C@@H](CCCNC(=N)N)C(=O)N[C@@H](CCC(N)=O)C(=O)N[C@@H](CCC(N)=O)C(N)=O)[C@@H](C)CC)[C@@H](C)CC)[C@@H](C)O)[C@@H](C)O)C(C)C)C(C)C [MELITTIN]	2 µM (≈ 5.69 µg/mL)	1 µM (≈ 2.85 µg/mL)	4 µM (≈ 11.4 µg/mL)	2 µM (≈ 5.69 µg/mL)	2 µM (≈ 5.69 µg/mL)	1 µM (≈ 2.85 µg/mL)	2 µM (≈ 5.69 µg/mL)	1 µM (≈ 2.85 µg/mL)	2 µM (≈ 5.69 µg/mL)	2 µM	2.09 µM	2 µM (≈ 5.69 µg/mL)	0.96	4 µM	8 µM	2 µM	2 µM	64 µM	> 64 µM	> 64 µM	MBC (Escherichia coli [19]): 2 µM; MBC (Escherichia coli [20]): 2 µM; MBC (Escherichia coli [21]): 4 µM; MBC (Escherichia coli [22]): 2 µM; MBC (Escherichia coli [24]): 2 µM (≈ 5.69 µg/mL); MBC (Escherichia coli [25]): 1 µM (≈ 2.85 µg/mL); MBC (Escherichia coli [26]): 1 µM (≈ 2.85 µg/mL); MBC (Pseudomonas aeruginosa [27]): 4 µM (≈ 11.4 µg/mL); MBC (Pseudomonas aeruginosa [28]): 2 µM (≈ 5.69 µg/mL); MBC (Pseudomonas aeruginosa [29]): 4 µM (≈ 11.4 µg/mL); MBC (Pseudomonas aeruginosa [30]): 2 µM (≈ 5.69 µg/mL); MBC (Salmonella typhimurium [31]): 2 µM (≈ 5.69 µg/mL); MBC (Klebsiella pneumoniae [32]): 2 µM (≈ 5.69 µg/mL)
